# Values of other authors, collected in patent US20250325558A1, “MODULATION OF BACE1 AS A THERAPY FOR SPINOCEREBELLAR ATAXIA” (The General Hospital Corporation, priority 2022, published 2025).
# Conditions: preclinical and clinical studies
structure (smiles),measurement,value
"CN1C(=N)N[C@](C)(c2cc(NC(=O)c3ccc(F)cn3)ccc2F)CS1(=O)=O [MK-8931, verubecestat]",serious adverse side effects such as liver toxicity,did not produce any serious adverse side effects such as liver toxicity
